Measured values from patent US11534457B2, “Use of dextran sulfate” (priority 2017, dated 2022).
Marks after values point to notes of the source that are not given here.

How the values were obtained:
[1] = tested on: severe traumatic brain injury (sTBI); test: sTBI in rats, HPLC of free amino acids and amino group containing compounds in brain (Example 3); format: in vivo, Male Wistar rats
human Schwann cells = test: PI staining (DNA content, cell cycle, cell numbers, apoptotic fraction), Acumen cytometry; format: cell-based; details: 0.01 and 0.1 mg/ml
Protocol: The study aims were to evaluate the effect of LMW-DS on cell survival and expression of differentiation proteins in three cell types, cerebral cortical neurons, motor neurons and Schwann cells, using two concentrations 0.01 and 0.1 mg/ml of LMW-DS.
Neurons were cultured as 40,000 cells per well and Schwann cells 3,000 cells per. Cells were treated after 24 hours. The number of cells per well depended on the growth phenotype, proliferative capacity, etc.
Schwann cells growth medium was prepared by adding 10% of fetal bovine serum (FBS, PAA) to high-glucose DMEM and pre-warmed to 37° C. Cells were thawed in a 37° C. water bath for no longer than 2 min. […] Pellet was resuspended in 5 ml of medium and cells were counted with the Cellometer. […]
LMW-DS was prepared in the culture media of choice for each cell line and added to the respective wells in the doses 0.01 and 0.1 mg/ml. For cell survival assays cells were analyzed after 24 and 48 hours in eight identical wells/dose/time point. Differentiation and protein expression assay was analyzed after 48 hours, also in octuplicates. […]
The Acumen cytometer allows the direct cytometric analysis of attached cells without prior detachment. […] The protein content of the cells can also be directly measured and expressed as either ‘total protein content’ or ‘mean protein content’.

[2] = Acute phase 1: 15 mg/kg s.c. 30 min post-sTBI, sacrifice 2 days
[3] = Acute phase 2: 15 mg/kg s.c. 30 min post-sTBI, sacrifice 7 days
[4] = Chronic phase: 15 mg/kg s.c. 3 days post-sTBI, sacrifice 7 days

Q: Which “compounds of the methyl cycle (Met, L-Cystat, SAH)” value ([1]; 15 mg/kg s.c.) does the source give for “low molecular weight dextran sulfate [LMW-DS]” here?
A: significant beneficial effects

Q: And the “sTBI-induced increase in brain glutamate (GLU)” value ([1]; 15 mg/kg s.c. 30 min after sTBI)?
A: remarkable inhibition

Q: What about the “brain glutamate (excitotoxicity marker)” value ([1]; 15 mg/kg s.c. injected 3 days after sTBI) of the same substance?
A: no efficacy

Q: What about the “ALA, cerebral concentration” value [1, 2] of the same substance?
A: 0.50 ± 0.12^a μmol/g (w.w.)

Q: What about the “ARG, cerebral concentration” value [1, 2] of the same substance?
A: 0.13 ± 0.02^b,d μmol/g (w.w.)

Q: What about the “ASN, cerebral concentration” value [1, 2] of the same substance?
A: 0.12 ± 0.02^i μmol/g (w.w.)

Q: And the “ASP, cerebral concentration” value [1, 2]?
A: 2.40 ± 0.56^d,i μmol/g (w.w.)

Q: What about the “CITR, cerebral concentration” value [1, 2] of the same substance?
A: 0.018 ± 0.004 µmol/g (w.w.)

Q: What about the “GABA, cerebral concentration” value [1, 2] of the same substance?
A: 1.43 ± 0.25^a μmol/g (w.w.)

Q: What about the “GLN, cerebral concentration” value [1, 2] of the same substance?
A: 4.78 ± 1.09^a μmol/g (w.w.)

Q: And the “GLU, cerebral concentration” value [1, 2]?
A: 9.81 ± 1.66^i μmol/g (w.w.)

Q: What about the “GLY, cerebral concentration” value [1, 2] of the same substance?
A: 0.83 ± 0.25^a,c μmol/g (w.w.)

Q: And the “HIS, cerebral concentration” value [1, 2]?
A: 0.068 ± 0.015^b μmol/g (w.w.)

Q: What about the “ILE, cerebral concentration” value [1, 2] of the same substance?
A: 0.038 ± 0.007 µmol/g (w.w.)

Q: What about the “L-Cystat, cerebral concentration” value [1, 2] of the same substance?
A: 0.185 ± 0.031^b,c,i μmol/g (w.w.)

Q: What about the “LEU, cerebral concentration” value [1, 2] of the same substance?
A: 0.021 ± 0.005^a,c μmol/g (w.w.)

Q: And the “LYS, cerebral concentration” value [1, 2]?
A: 0.236 ± 0.057^b,d,h μmol/g (w.w.)

Q: What about the “MET, cerebral concentration” value [1, 2] of the same substance?
A: 0.016 ± 0.005^d,j μmol/g (w.w.)

Q: What about the “ORN, cerebral concentration” value [1, 2] of the same substance?
A: 0.014 ± 0.007 µmol/g (w.w.)

Q: And the “PHE, cerebral concentration” value [1, 2]?
A: 0.031 ± 0.011^b,d μmol/g (w.w.)

Q: What about the “SAH, cerebral concentration” value [1, 2] of the same substance?
A: 0.033 ± 0.008^b,c,j μmol/g (w.w.)

Q: What about the “SER, cerebral concentration” value [1, 2] of the same substance?
A: 0.88 ± 0.25^a μmol/g (w.w.)

Q: What about the “TAU, cerebral concentration” value [1, 2] of the same substance?
A: 4.86 ± 0.85^b μmol/g (w.w.)

Q: What about the “THR, cerebral concentration” value [1, 2] of the same substance?
A: 0.92 ± 0.29^a μmol/g (w.w.)

Q: And the “TRP, cerebral concentration” value [1, 2]?
A: 0.030 ± 0.007^b,dg,i μmol/g (w.w.)

Q: What about the “TYR, cerebral concentration” value [1, 2] of the same substance?
A: 0.15 ± 0.03 µmol/g (w.w.)

Q: And the “VAL, cerebral concentration” value [1, 2]?
A: 0.042 ± 0.011 µmol/g (w.w.)

Q: What about the “ALA, cerebral concentration” value [1, 3] of the same substance?
A: 0.52 ± 0.24^a,e μmol/g (w.w.)

Q: And the “ARG, cerebral concentration” value [1, 3]?
A: 0.16 ± 0.03 µmol/g (w.w.)

Q: And the “ASN, cerebral concentration” value [1, 3]?
A: 0.13 ± 0.03^i μmol/g (w.w.)

Q: And the “ASP, cerebral concentration” value [1, 3]?
A: 2.94 ± 0.98^f,j μmol/g (w.w.)

Q: And the “CITR, cerebral concentration” value [1, 3]?
A: 0.018 ± 0.008 µmol/g (w.w.)

Q: What about the “GABA, cerebral concentration” value [1, 3] of the same substance?
A: 1.60 ± 0.24^a μmol/g (w.w.)

Q: What about the “GLN, cerebral concentration” value [1, 3] of the same substance?
A: 3.66 ± 0.41 µmol/g (w.w.)

Q: What about the “GLU, cerebral concentration” value [1, 3] of the same substance?
A: 9.93 ± 1.56^e,i μmol/g (w.w.)

Q: And the “GLY, cerebral concentration” value [1, 3]?
A: 0.71 ± 0.16^f,i μmol/g (w.w.)

Q: And the “HIS, cerebral concentration” value [1, 3]?
A: 0.055 ± 0.019 µmol/g (w.w.)

Q: What about the “ILE, cerebral concentration” value [1, 3] of the same substance?
A: 0.048 ± 0.017^a μmol/g (w.w.)

Q: And the “L-Cystat, cerebral concentration” value [1, 3]?
A: 0.173 ± 0.038^b,f,i μmol/g (w.w.)

Q: What about the “LEU, cerebral concentration” value [1, 3] of the same substance?
A: 0.018 ± 0.004 µmol/g (w.w.)

Q: And the “LYS, cerebral concentration” value [1, 3]?
A: 0.32 ± 0.04^a,e,i μmol/g (w.w.)

Q: What about the “MET, cerebral concentration” value [1, 3] of the same substance?
A: 0.022 ± 0.006^b,e,i μmol/g (w.w.)

Q: And the “ORN, cerebral concentration” value [1, 3]?
A: 0.011 ± 0.005 µmol/g (w.w.)

Q: And the “PHE, cerebral concentration” value [1, 3]?
A: 0.028 ± 0.010 µmol/g (w.w.)

Q: And the “SAH, cerebral concentration” value [1, 3]?
A: 0.026 ± 0.010^f,i μmol/g (w.w.)

Q: What about the “SER, cerebral concentration” value [1, 3] of the same substance?
A: 0.71 ± 0.28^b μmol/g (w.w.)

Q: What about the “TAU, cerebral concentration” value [1, 3] of the same substance?
A: 3.80 ± 1.19 µmol/g (w.w.)

Q: And the “THR, cerebral concentration” value [1, 3]?
A: 0.66 ± 0.23 µmol/g (w.w.)

Q: What about the “TRP, cerebral concentration” value [1, 3] of the same substance?
A: 0.015 ± 0.006 µmol/g (w.w.)

Q: What about the “TYR, cerebral concentration” value [1, 3] of the same substance?
A: 0.172 ± 0.046^b,f μmol/g (w.w.)

Q: And the “VAL, cerebral concentration” value [1, 3]?
A: 0.057 ± 0.017 µmol/g (w.w.)

Q: And the “ALA, cerebral concentration” value [1, 4]?
A: 0.57 ± 0.28^a,e μmol/g (w.w.)

Q: What about the “ARG, cerebral concentration” value [1, 4] of the same substance?
A: 0.14 ± 0.02 µmol/g (w.w.)

Q: And the “ASN, cerebral concentration” value [1, 4]?
A: 0.18 ± 0.02^a μmol/g (w.w.)

Q: What about the “ASP, cerebral concentration” value [1, 4] of the same substance?
A: 4.46 ± 0.70^a,f μmol/g (w.w.)

Q: What about the “CITR, cerebral concentration” value [1, 4] of the same substance?
A: 0.020 ± 0.006 µmol/g (w.w.)

Q: What about the “GABA, cerebral concentration” value [1, 4] of the same substance?
A: 1.85 ± 0.65^a μmol/g (w.w.)

Q: And the “GLN, cerebral concentration” value [1, 4]?
A: 3.98 ± 0.34 µmol/g (w.w.)

Q: What about the “GLU, cerebral concentration” value [1, 4] of the same substance?
A: 13.58 ± 1.28^a μmol/g (w.w.)

Q: What about the “GLY, cerebral concentration” value [1, 4] of the same substance?
A: 1.05 ± 0.13^a,f μmol/g (w.w.)

Q: And the “HIS, cerebral concentration” value [1, 4]?
A: 0.047 ± 0.021 µmol/g (w.w.)

Q: And the “ILE, cerebral concentration” value [1, 4]?
A: 0.041 ± 0.016^b μmol/g (w.w.)

Q: And the “L-Cystat, cerebral concentration” value [1, 4]?
A: 0.26 ± 0.05^a,f μmol/g (w.w.)

Q: What about the “LEU, cerebral concentration” value [1, 4] of the same substance?
A: 0.024 ± 0.032^b,f μmol/g (w.w.)

Q: And the “LYS, cerebral concentration” value [1, 4]?
A: 0.179 ± 0.036 µmol/g (w.w.)

Q: What about the “MET, cerebral concentration” value [1, 4] of the same substance?
A: 0.009 ± 0.004^b μmol/g (w.w.)

Q: What about the “ORN, cerebral concentration” value [1, 4] of the same substance?
A: 0.017 ± 0.009^a,e μmol/g (w.w.)

Q: What about the “PHE, cerebral concentration” value [1, 4] of the same substance?
A: 0.033 ± 0.011^b μmol/g (w.w.)

Q: What about the “SAH, cerebral concentration” value [1, 4] of the same substance?
A: 0.050 ± 0.013^a μmol/g (w.w.)

Q: What about the “SER, cerebral concentration” value [1, 4] of the same substance?
A: 0.93 ± 0.27^a,e μmol/g (w.w.)

Q: What about the “TAU, cerebral concentration” value [1, 4] of the same substance?
A: 4.49 ± 0.43^a μmol/g (w.w.)

Q: What about the “THR, cerebral concentration” value [1, 4] of the same substance?
A: 0.75 ± 0.24^a,e μmol/g (w.w.)

Q: What about the “TRP, cerebral concentration” value [1, 4] of the same substance?
A: 0.012 ± 0.007 µmol/g (w.w.)

Q: And the “TYR, cerebral concentration” value [1, 4]?
A: 0.21 ± 0.05^f μmol/g (w.w.)

Q: What about the “VAL, cerebral concentration” value [1, 4] of the same substance?
A: 0.040 ± 0.016^b μmol/g (w.w.)

Q: And the “fraction of apoptotic cells” value (human Schwann cells)?
A: reduced

Q: What about the “number of cells in the G2/M phase (PI content)” value (human Schwann cells) of the same substance?
A: appeared to increase the number of cells in the G2/M phase
